The test has as its system BDF1 mice, P388 leukemia ip, median survival T/C. Description: NCI In Vivo Anticancer Drug Screen. Data for tumor model P388 Leukemia (intraperitoneal) in B6D2F1 (BDF1) mice. To be noted: endpoint: median survival time, higher = longer survival. The method in brief:
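Survival ratio, drug arm over vehicle arm, in mice with a transplanted tumour.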

[1] abbreviates: dose: 6.25 mg/kg/injection, schedule: Q01DX009 (ip), vehicle: Klucel (hydroxypropylcellulose) (HPC).
[2] abbreviates: dose: 12.5 mg/kg/injection, schedule: Q01DX009 (ip), vehicle: Klucel (hydroxypropylcellulose) (HPC).
Setting [3] is: dose: 25.0 mg/kg/injection, schedule: Q01DX009 (ip), vehicle: Klucel (hydroxypropylcellulose) (HPC).
Setting [4] is: dose: 100.0 mg/kg/injection, schedule: Q04DX003 (ip), vehicle: Klucel (hydroxypropylcellulose) (HPC).
Where [5] appears, read: dose: 100.0 mg/kg/injection, schedule: Q04DX003 (ip), vehicle: saline with Tween-80.
The mark [6] stands for this setting: dose: 200.0 mg/kg/injection, schedule: Q04DX003 (ip), vehicle: Klucel (hydroxypropylcellulose) (HPC).
Where [7] appears, read: dose: 100.0 mg/kg/injection, schedule: Q01DX009 (ip), vehicle: saline with Tween-80.
[8] abbreviates: dose: 200.0 mg/kg/injection, schedule: Q01DX009 (ip), vehicle: saline with Tween-80.
Setting [9] is: dose: 200.0 mg/kg/injection, schedule: Q04DX003 (ip), vehicle: saline with Tween-80.
[10] abbreviates: dose: 400.0 mg/kg/injection, schedule: Q01DX009 (ip), vehicle: saline with Tween-80.
The mark [11] stands for this setting: dose: 400.0 mg/kg/injection, schedule: Q04DX003 (ip), vehicle: saline with Tween-80.

SMILES strings stand for the structures. Several values for one entry are separate records, joined by “and”; a condition that tells them apart may be missing. Equal values may be shown once. Toxic doses and inconclusive results are not listed.

Turning to `O=CNC(Cc1ccc(N(CCCl)CCCl)cc1)C(=O)O` (centres undefined), the T/C is, setting by setting: (dose: 1.1 mg/kg/injection, schedule: Q01DX009 (ip), vehicle: Klucel (hydroxypropylcellulose) (HPC)) 107 % of control; (dose: 1.46 mg/kg/injection, schedule: Q04DX003 (ip), vehicle: saline) 104 % of control; (dose: 1.56 mg/kg/injection, schedule: Q01DX009 (ip), vehicle: saline) 118 % of control; (dose: 1.7 mg/kg/injection, schedule: Q01DX009 (ip), vehicle: Klucel (hydroxypropylcellulose) (HPC)) 107 % of control; (dose: 2.2 mg/kg/injection, schedule: Q04DX003 (ip), vehicle: saline) 100 % of control; (dose: 3.13 mg/kg/injection, schedule: Q01DX009 (ip), vehicle: saline) 104 % of control. The T/C is, setting by setting: (dose: 3.3 mg/kg/injection, schedule: Q04DX003 (ip), vehicle: saline) 118 % of control; (dose: 5.0 mg/kg/injection, schedule: Q04DX003 (ip), vehicle: saline) 122 % of control; under setting [1], 175 % of control; (dose: 6.25 mg/kg/injection, schedule: Q01DX009 (ip), vehicle: saline) 181 % of control; (dose: 8.3 mg/kg/injection, schedule: Q04DX003 (ip), vehicle: Klucel (hydroxypropylcellulose) (HPC)) 109 % of control; (dose: 11.0 mg/kg/injection, schedule: Q04DX003 (ip), vehicle: saline) 160 % of control. Further, the T/C is, setting by setting: (dose: 12.0 mg/kg/injection, schedule: Q04DX003 (ip), vehicle: Klucel (hydroxypropylcellulose) (HPC)) 118 % of control; under setting [2], 185 % of control; (dose: 16.0 mg/kg/injection, schedule: Q01DX009 (ip), vehicle: Klucel (hydroxypropylcellulose) (HPC)) 160 % of control and 200 % of control; (dose: 16.5 mg/kg/injection, schedule: Q04DX003 (ip), vehicle: saline) 163 % of control and 169 % of control; (dose: 23.3 mg/kg/injection, schedule: Q01DX009 (ip), vehicle: Klucel (hydroxypropylcellulose) (HPC)) 170 % of control; under setting [3], 230 % of control and 220 % of control. Moreover, the T/C by setting is: (dose: 25.0 mg/kg/injection, schedule: Q04DX003 (ip), vehicle: saline) 172 % of control and 200 % of control; (dose: 29.0 mg/kg/injection, schedule: Q04DX003 (ip), vehicle: Klucel (hydroxypropylcellulose) (HPC)) 115 % of control; (dose: 35.0 mg/kg/injection, schedule: Q01DX009 (ip), vehicle: Klucel (hydroxypropylcellulose) (HPC)) 245 % of control and 195 % of control; (dose: 37.5 mg/kg/injection, schedule: Q04DX003 (ip), vehicle: saline) 234 % of control and 186 % of control; (dose: 40.0 mg/kg/injection, schedule: Q04DX003 (ip), vehicle: Klucel (hydroxypropylcellulose) (HPC)) 204 % of control; (dose: 44.0 mg/kg/injection, schedule: Q04DX003 (ip), vehicle: Klucel (hydroxypropylcellulose) (HPC)) 240 % of control. In addition, the T/C is 272 % of control (dose: 50.0 mg/kg/injection, schedule: Q01DX009 (ip), vehicle: Klucel (hydroxypropylcellulose) (HPC)); 272 % of control (dose: 60.0 mg/kg/injection, schedule: Q04DX003 (ip), vehicle: Klucel (hydroxypropylcellulose) (HPC)); 280 % of control (dose: 66.0 mg/kg/injection, schedule: Q04DX003 (ip), vehicle: Klucel (hydroxypropylcellulose) (HPC)); 175 % of control under setting [4]; 95 % of control under setting [5]; 250 % of control (dose: 132.0 mg/kg/injection, schedule: Q04DX003 (ip), vehicle: Klucel (hydroxypropylcellulose) (HPC)). In addition, under setting [6], the T/C was 185 % of control.

On to `O=C1OC(=O)C2C1C1(Cl)C(Cl)=C(Cl)C2(Cl)C2C(=O)OC(=O)C21` (centres undefined), for which the T/C runs as follows: (dose: 100.0 mg/kg/injection, schedule: Q04DX003 (ip), vehicle: saline) 91 % of control; (dose: 200.0 mg/kg/injection, schedule: Q04DX003 (ip), vehicle: saline) 108 % of control; (dose: 400.0 mg/kg/injection, schedule: Q04DX003 (ip), vehicle: saline) 104 % of control.

For `CC12CCC(C1)C(C)(C)C2NCCCN1C(=O)c2ccc3c4c(ccc(c24)C1=O)C(=O)N(CCCNC1C2(C)CCC(C2)C1(C)C)C3=O` (centres undefined), the T/C is, setting by setting: under setting [1], 105 % of control; under setting [2], 100 % of control; under setting [3], 115 % of control and 116 % of control.

With `CCOC(=O)C(=O)C1CCCC1=O` (centres undefined), the T/C under setting [7] was 92 % of control; the T/C under setting [5] is 95 % of control; the T/C under setting [8] is 89 % of control; the T/C under setting [9] was 109 % of control; the T/C under setting [10] was 92 % of control; the T/C under setting [11] is 100 % of control.

Turning to `CCCCCCCCCCCCCCOc1ccc(Cc2ccccc2)cc1`, the T/C under setting [4] is 100 % of control and the T/C under setting [6] is 90 % of control.

`O=C(O)CSc1ccc(NC(=O)NC2CCCCC2)cc1`: the T/C was 105 % of control under setting [7], 115 % of control under setting [8] and 105 % of control under setting [10].

Consider `Oc1ccc(Cl)c2cccnc12`, for which the T/C by setting is: (dose: 12.5 mg/kg/injection, schedule: Q01DX010 (ip), vehicle: carboxymethylcellulose (CMC)) 104 % of control; (dose: 25.0 mg/kg/injection, schedule: Q01DX010 (ip), vehicle: carboxymethylcellulose (CMC)) 104 % of control; (dose: 50.0 mg/kg/injection, schedule: Q01DX010 (ip), vehicle: carboxymethylcellulose (CMC)) 109 % of control.

`CC(Cc1ccccc1)C(N)=O` (centres undefined): the T/C runs as follows: (dose: 50.0 mg/kg/injection, schedule: Q04DX003 (ip), vehicle: saline with Tween-80) 105 % of control; under setting [5], 98 % of control; under setting [9], 113 % of control.

As to `CCNc1ncc([N+](=O)[O-])c(Nc2ccccc2)n1`, the T/C reads like this: (dose: 50.0 mg/kg/injection, schedule: Q01DX009 (ip), vehicle: saline with Tween-80) 103 % of control; under setting [7], 103 % of control; under setting [8], 88 % of control.

Take `COC(=O)C(CCCCNC(=O)OCc1ccccc1)NC(=O)C(CCCCNC(=O)OCc1ccccc1)NC(=O)OC(C)(C)C` (centres undefined): the T/C (dose: 200.0 mg/kg/injection, schedule: Q01DX005 (ip), vehicle: saline with Tween-80) was 90 % of control.

As for `Cc1ccc(NS(=O)(=O)c2ccccc2)cc1`, the T/C by setting is: under setting [5], 100 % of control; under setting [9], 100 % of control; under setting [11], 110 % of control.

As for `Cc1noc(C)c1CC1(Cc2c(C)noc2C)C(=O)CCC2(C)CCCC=C21` (centres undefined), the T/C runs as follows: (dose: 50.0 mg/kg/injection, schedule: Q04DX003 (ip), vehicle: Klucel (hydroxypropylcellulose) (HPC)) 91 % of control; (dose: 100.0 mg/kg/injection, schedule: Q01DX009 (ip), vehicle: Klucel (hydroxypropylcellulose) (HPC)) 104 % of control; under setting [4], 104 % of control; (dose: 200.0 mg/kg/injection, schedule: Q01DX009 (ip), vehicle: Klucel (hydroxypropylcellulose) (HPC)) 95 % of control; under setting [6], 91 % of control.

On to `Oc1c(Br)ccc2c(O)c(Br)ccc12`, for which the T/C was 109 % of control (dose: 132.0 mg/kg/injection, schedule: Q04DX003 (ip), vehicle: saline with Tween-80); 114 % of control under setting [9]; 95 % of control (dose: 300.0 mg/kg/injection, schedule: Q04DX003 (ip), vehicle: saline with Tween-80).

As for `Cc1c(-c2ccc(C(=N)N)cc2)oc(-c2ccc(C(=N)N)cc2)c1C`, the T/C (dose: 3.13 mg/kg/injection, schedule: Q01DX009 (ip), vehicle: saline with Tween-80) is 109 % of control.

In the case of `c1ccc(CSc2ncnc3nc[nH]c23)cc1`, the T/C is 100 % of control (dose: 12.5 mg/kg/injection, schedule: Q01DX010 (ip), vehicle: saline); 100 % of control (dose: 25.0 mg/kg/injection, schedule: Q01DX010 (ip), vehicle: saline); 100 % of control (dose: 50.0 mg/kg/injection, schedule: Q01DX010 (ip), vehicle: saline); 100 % of control (dose: 100.0 mg/kg/injection, schedule: Q01DX010 (ip), vehicle: saline).

The values are drawn from PubChem BioAssay AID328 (DTP/NCI, 2004).
